Measurements: patent US4402972A, “Cyclopropane carboxylic acid derivatives” (Roussel Uclaf, priority 1980, dated 1983)

Experiments:
[1] = test system: Boophilus microplus larvae (DDT resistant); assay: Activity against Boophilus microplus larvae, DDT resistant strain; type: in vivo
Description: (§1) A 10% emulsifiable concentrate was prepared by dissolving the test compound of Example 6 in a mixture of dimethylformamide, emulsifiers and Arcopal and the concentrate was diluted with water to obtain solutions of 10,5 and 1 ppm of active compound. The different solutions were sprayed by a spraying tower on to larvae of tropical cattle ticks of the Boophilus microplus type (Mexico sensitive and DDT resistant strains) and the number of dead and live larvae was determined after 24 hours.

[2] = test system: Boophilus microplus ticks (Mexico sensitive strain); assay: Inhibition of reproduction of Boophilus microplus ticks; type: in vivo
Description: Female Boophilus microplus ticks of the Mexico sensitive strain ready to lay eggs were immersed for 5 minutes in solutions of 100, 50, 25, 12.50 and 6.25 ppm of the compound of Example 6 and then they were placed in a heated enclosure to lay their eggs.

[3] = test system: Rhipicephalus appendiculatus; assay: Activity against Rhipicephalus appendiculatus ticks; type: in vivo
Description: as §1
(§2) The test procedure of F was repeated with the compound of Example 6 at doses of 100, 10 and 1 ppm using 10 ticks of Rhipicephalus appendiculatus or Amblyomma hebraeum per test as above.

[4] = test system: Boophilus microplus larvae (Mexico sensitive); assay: Activity against Boophilus microplus larvae, Mexico sensitive strain; type: in vivo
Description: as §1

[5] = test system: Epilachna varivestris Larvae; assay: Activity against Epilachna varivestris larvae, topical application; type: in vivo; settings: for LD50: topical, second last stage larvae, 72 hours
Description: The test was carried out by topical application of the test compounds as in test B and the larvae of Epilachna variestris were in second last stage. The treated larvae were then placed on bean plants and the number of dead was determined after 72 hours to calculate the LD50 in ng.

[6] = test system: Amblyomma hebraeum; assay: Activity against Amblyomma hebraeum ticks; type: in vivo
Description: as §1, §2

[7] = test system: Fusarium, Penicillium, Aspergilus, Geotrichum, Trichosporon and Cephalosporium; assay: Antifungal activity of the acids (general statement); type: cell-based
[8] = test system: mixture of spores of Geotrichum, Trichosporon and Cephalosporium; assay: Anti-fungal test on oils (3% synthetic fluid); type: cell-based; settings: for Anti-fungal growth after 48 hours: control 49 × 10^3 Geo. + 80 × 10^3 Tri. + 11 × 10^3 Cep.
Description: A solution of 3% of synthetic fluid was used to test the anti-fungal activity of (1R,cis) 2,2-dimethyl-3-[Z-2-(methoxycarbonyl)-ethenyl]-cyclopropane-carboxylic acid and contamination was effected with 5 ml of an innoculum consisting of a mixture of spores of Geotrichum, Trichosporon and Cephalosporium.

[9] = test system: mixture of spores of Aerobacter aerogenes, Pseudomonas aeruginosa, Escherichia coli, Serratia mancescens and Bacillus subtilis; assay: Bactericidal activity (3% carboxymethyl starch in water); type: cell-based; settings: for bacterial population after 48 hours: control 12 × 10^7; for bacterial population after 8 days: control 16 × 10^7
Description: The bactericidal activity of (1R,cis) 2,2-dimethyl-3-[Z-2-(methoxycarbonyl)-ethenyl]-cyclopropane-carboxylic acid was determined with a solution of 3% of carboxymethyl starch in water. The test compound was placed in 1 ml of water and 5 ml of an innoculum of a mixture of spores of Aerobacter aerogenes, Pseudomonas aeruginosa, Escherichia coli, Serratia mancescens and Bacillus subtilis were added thereto. The mixture was placed in an oven for 48 hours at 37° C. and then for 6 days at 20° C. The bacterial population ([…]) was determined 48 hours and 8 days by the serum dihibition method and incorporation into broth containing agar.

[10] = test system: mixture of spores of Fusarium roseum, Penicillium roquefonti and Aspergilus niger; assay: Antifungal activity, adhesive test (3% carboxymethyl starch); type: cell-based; settings: for Growth of Fungus after 48 hours / Growth of Fungus after 8 days: scale of 3 to 0, untreated control 3
Description: The antifungal activity of (1R,cis) 2,2-dimethyl-3-[Z-2-(methoxycarbonyl)-ethenyl]-cyclopropane-carboxylic acid was determined in an adhesive test using an aqueous 3% carboxymethyl starch solution. The test compound was dissolved in 1 ml of acetone and 5 ml of an innoculum consisting of a mixture of spores of Fusarium roseum, Penicillium roquefonti and Aspergilus niger were added thereto. The development of fungus after 48 hours and 8 days was compared to an untreated control on a scale of 3 to 0.

[11] = test system: Spodoptera littoralis larvae; assay: Activity against Spodoptera littoralis larvae, topical application; type: in vivo; settings: dorsal thorax, fourth stage larvae, 48 hours
Description: The test was carried out on larvae of Spodoptera littoralis by applying an acetone solution of the test compound with an Arnold micro-manipulator to the dorsal thorax of the larvae. 10 to 15 larvae were used for each tested dose and the larvae were in the fourth stage (about 10 days old at 24° C. and 65% relative humidity). The larvae were then placed in an artifical medium (Poitout medium) and the number of dead were determined after 48 hours to calculate the LD50 in ng.

[12] = test system: insects; assay: Insecticidal activity (general statement); settings: in vivo
[13] = test system: houseflies; assay: Knock-down activity on houseflies, direct spray in Kearns and March chamber; type: in vivo; settings: for KT50: 0.25 g/l solution, 2 ml, direct spray, 4 day old females
Description: 50 4 day old female houseflies per dose were directly sprayed in a Kearns and March chamber with a solution of the 0.25 g/l of the test compound in 2 ml of a mixture of 5% of acetone and Isopar L (petroleum solvent) in one second.

[14] = test system: houseflies; assay: Insecticidal activity on houseflies, topical application; type: in vivo; settings: 1 μl acetone solution, dorsal thorax, 4 day old females, 24 hours
Description: The test was effected on 4 day old female houseflies which received a topical application of 1 μl of an acetone solution of the test compound on the dorsal thorax with an Arnold micro-manipulator. 50 insects were used for each test and the number of dead insects were determined after 24 hours to calculate the LD50 dose in nanograms (the dose killing 50% of the insects).

[15] = Mexico sensitive and DDT resistant strains together
[16] = Rhipicephalus microplus, in Bos taurus, 1 ppm, 24 hours
[17] = Rhipicephalus microplus, in Bos taurus, 5 ppm, 24 hours
[18] = Rhipicephalus microplus, in Bos taurus, 10 ppm, 24 hours

With `CC(C)(C)OC(=O)/C=C\[C@H]1[C@@H](C(=O)O[C@H](C#N)c2cccc(Oc3ccccc3)c2)C1(C)C` [Example 6, (S)α-cyano-3-phenoxy-benzyl (1R,cis) 2,2-dimethyl-3-[Z-2-(tert.-butoxycarbonyl)-ethenyl]-cyclopropane-carboxylate] the “activity against Boophilus microplus larvae, DDT resistant (in words)” value [1, 15] was “remarkable activity”, the mortality at 1 ppm [1, 16] was 100% and the mortality at 5 ppm [1, 17] was 100%. The mortality at 10 ppm [1, 18] was 100%, the inhibition at 6.25 ppm ([2]; Rhipicephalus microplus, 5 min, 6.25 ppm, 5 minutes immersion) was 100% and the inhibition at 12.5 ppm ([2]; Rhipicephalus microplus, 5 min, 12.50 ppm, 5 minutes immersion) was 100%. For the same compound, the inhibition at 25 ppm ([2]; Rhipicephalus microplus, 5 min, 25 ppm, 5 minutes immersion) was 100%, the inhibition at 50 ppm ([2]; Rhipicephalus microplus, 5 min, 50 ppm, 5 minutes immersion) was 100% and the inhibition at 100 ppm ([2]; Rhipicephalus microplus, 5 min, 100 ppm, 5 minutes immersion) was 100%. The “tickicide activity, reproduction test (in words)” value ([2]; in vivo) was “remarkable tickicide activity”, the mortality at 1 ppm ([3]; Rhipicephalus appendiculatus, 1 ppm) was 100% and the mortality at 10 ppm ([3]; Rhipicephalus appendiculatus, 10 ppm) was 100%. The mortality at 100 ppm ([3]; Rhipicephalus appendiculatus, 100 ppm) was 100%, the “tickicide activity against Rhipicephalus appendiculatus (in words)” value ([3]; in vivo) was “excellent tickicide activity” and the “activity against Boophilus microplus larvae, Mexico sensitive (in words)” value [4, 15] was “remarkable activity”. The mortality at 1 ppm [4, 16] was 100%, the mortality at 5 ppm [4, 17] was 100% and the mortality at 10 ppm [4, 18] was 100%. The “insecticidal activity against Epilachna larvae (in words)” value ([5]; in vivo) was “good insecticidal activity”, the LD50 [5] was 0.446 ng and the mortality at 1 ppm ([6]; Amblyomma hebraeum, 1 ppm) was 70%. The mortality at 10 ppm ([6]; Amblyomma hebraeum, 10 ppm) was 100%, the mortality at 100 ppm ([6]; Amblyomma hebraeum, 100 ppm) was 100% and the “tickicide activity against Amblyomma hebraeum (in words)” value ([6]; in vivo) was “excellent tickicide activity”.

With `COC(=O)/C=C\[C@H]1[C@@H](C(=O)O)C1(C)C` (relative stereo) [(1R,cis) 2,2-dimethyl-3-[(Z)-2-(methoxycarbonyl)-ethenyl]-cyclopropane-carboxylic acid] the “fungicidal properties / antifungal activity (in words)” value [7] was “interesting fungicidal properties”, the “antifungal activity on oils (in words)” value [8] was “good antifungal activity” and the “Anti-fungal growth after 48 hours” value ([8]; 0.5 % concentration) was 0. For the same compound, the “Anti-fungal growth after 48 hours” value ([8]; 1 % concentration) was 0, the “bactericidal activity (in words)” value [9] was “good bactericidal activity” and the “bacterial population after 48 hours” value ([9]; 0.025%) was 10 × 10^4 colorless ml. The “bacterial population after 8 days” value ([9]; 0.025%) was 16 × 10^6 colorless ml, the “bacterial population after 48 hours” value ([9]; 0.05%) was 52 × 10^2 colorless ml and the “bacterial population after 8 days” value ([9]; 0.05%) was 68 × 10^4 colorless ml. For the same compound, the “anti-fungal activity (in words)” value [10] was “good anti-fungal activity”, the “Growth of Fungus after 48 hours” value ([10]; 0.01 % concentration) was 3 and the “Growth of Fungus after 8 days” value ([10]; 0.01 % concentration) was 3. The “Growth of Fungus after 48 hours” value ([10]; 0.05 % concentration) was 0 and the “Growth of Fungus after 8 days” value ([10]; 0.05 % concentration) was 0.

With `COC(=O)/C=C\[C@H]1[C@@H](C(=O)O[C@H](C#N)c2cccc(Oc3ccccc3)c2)C1(C)C` [Example 1, (S)α-cyano-3-phenoxy-benzyl (1R,cis) 2,2-dimethyl-3-[Z-2-methoxycarbonyl-ethenyl]-cyclopropane-carboxylate] the LD50 [11] was 3.602 ng, the “insecticidal activity (in words)” value [12] was “particularly remarkable insecticidal activity” and the KT50 [13] was 1.226 min. For the same compound, the “knock-down activity (in words)” value ([13]; in vivo) was “remarkable knock-down activity”, the LD50 [14] was 7.128 ng and the LD50 [5] was 8.290 ng.

With `CCOC(=O)/C=C\[C@H]1[C@@H](C(=O)O[C@H](C#N)c2cccc(Oc3ccccc3)c2)C1(C)C` [Example 3, (S)α-cyano-3-phenoxy-benzyl (1R,cis) 2,2-dimethyl-3-[Z-2-(ethoxycarbonyl)-ethenyl]-cyclopropane-carboxylate] the LD50 [11] was 3.260 ng, the KT50 [13] was 3.340 min and the LD50 [14] was 3.494 ng. It also gave an LD50 [5] of 8.850 ng.

Work on `CC(C)OC(=O)/C=C\[C@H]1[C@@H](C(=O)O[C@H](C#N)c2cccc(Oc3ccccc3)c2)C1(C)C` [Example 5, (S)α-cyano-3-phenoxy-benzyl (1R,cis) 2,2-dimethyl-3-[Z-2-(isopropoxycarbonyl)-ethenyl]-cyclopropane-carboxylate] yielded an LD50 [11] of 7.920 ng, a KT50 [13] of 4.390 min and an LD50 [14] of 2.781 ng. It also gave an LD50 [5] of 3.705 ng.
